Results: patent publication US10696672B2 (Pliant Therapeutics, Inc., priority 2016, dated 2020)

Biological target: recombinant human integrin αvβ6 (Homo sapiens (Human), UniProt P06756+P18564)
Test: Solid phase integrin αvβ6 binding assay
Details: plate-coated integrin; recombinant TGFβ1 LAP 0.67 ug/ml as ligand; 2 hours at 25° C.; read-out: αvβ6 Inhibition IC50 (nM) - range
Procedure: Example B1—Solid Phase Integrin αvβ6 Binding Assay
Microplates were coated with recombinant human integrin αvβ6 (2 ug/ml) in PBS (100 ul/well 25° C., overnight). The coating solution was removed, washed with wash buffer (0.05% Tween 20; 0.5 mM MnCl2; in 1×TBS). Plate was blocked with 200 ul/well of Block Buffer (1% BSA; 5% sucrose; 0.5 mM MnCl2; in 1×TBS) at 37° C. for 2 h. Dilutions of testing compounds and recombinant TGFβ1 LAP (0.67 ug/ml) in binding buffer (0.05% BSA; 2.5% sucrose; 0.5 mM MnCl2; in 1×TBS) were added. The plate was incubated for 2 hours at 25° C., washed, and incubated for 1 hour with Biotin-Anti-hLAP. Bound antibody was detected by peroxidase-conjugated streptavidin. The IC50 values for testing compounds were calculated by a four-parameter logistic regression.
The compounds tested were compound samples prepared according to procedures described in the Synthetic Examples section, with the stereochemical purity as indicated in the Examples indicated.

Chain of recombinant human integrin αvβ6 (P06756 31-992): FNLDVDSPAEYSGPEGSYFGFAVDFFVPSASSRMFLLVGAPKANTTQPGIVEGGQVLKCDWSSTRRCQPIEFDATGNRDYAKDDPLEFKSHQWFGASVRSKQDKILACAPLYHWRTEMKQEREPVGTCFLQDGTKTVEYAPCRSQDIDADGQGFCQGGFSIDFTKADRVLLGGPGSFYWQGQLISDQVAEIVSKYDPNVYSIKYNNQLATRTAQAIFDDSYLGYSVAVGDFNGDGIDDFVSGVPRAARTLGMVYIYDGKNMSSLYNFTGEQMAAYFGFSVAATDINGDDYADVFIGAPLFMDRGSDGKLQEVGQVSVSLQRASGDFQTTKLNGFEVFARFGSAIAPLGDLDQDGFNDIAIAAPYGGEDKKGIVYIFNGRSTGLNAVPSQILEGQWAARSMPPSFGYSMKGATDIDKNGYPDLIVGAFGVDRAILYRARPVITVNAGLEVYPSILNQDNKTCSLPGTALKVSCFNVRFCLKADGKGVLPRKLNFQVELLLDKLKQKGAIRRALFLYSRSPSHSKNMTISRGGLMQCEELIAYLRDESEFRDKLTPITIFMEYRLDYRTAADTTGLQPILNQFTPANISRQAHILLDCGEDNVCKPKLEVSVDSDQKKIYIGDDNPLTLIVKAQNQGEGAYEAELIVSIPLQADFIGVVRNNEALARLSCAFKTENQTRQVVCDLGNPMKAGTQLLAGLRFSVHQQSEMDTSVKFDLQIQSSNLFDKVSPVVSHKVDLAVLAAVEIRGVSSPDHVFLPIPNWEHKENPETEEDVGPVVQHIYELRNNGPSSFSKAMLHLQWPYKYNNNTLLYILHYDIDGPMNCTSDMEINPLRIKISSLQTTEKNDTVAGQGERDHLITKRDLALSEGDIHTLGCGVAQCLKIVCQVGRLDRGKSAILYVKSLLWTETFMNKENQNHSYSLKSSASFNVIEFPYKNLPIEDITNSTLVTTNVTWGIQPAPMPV
Chain of recombinant human integrin αvβ6 (P18564 22-707): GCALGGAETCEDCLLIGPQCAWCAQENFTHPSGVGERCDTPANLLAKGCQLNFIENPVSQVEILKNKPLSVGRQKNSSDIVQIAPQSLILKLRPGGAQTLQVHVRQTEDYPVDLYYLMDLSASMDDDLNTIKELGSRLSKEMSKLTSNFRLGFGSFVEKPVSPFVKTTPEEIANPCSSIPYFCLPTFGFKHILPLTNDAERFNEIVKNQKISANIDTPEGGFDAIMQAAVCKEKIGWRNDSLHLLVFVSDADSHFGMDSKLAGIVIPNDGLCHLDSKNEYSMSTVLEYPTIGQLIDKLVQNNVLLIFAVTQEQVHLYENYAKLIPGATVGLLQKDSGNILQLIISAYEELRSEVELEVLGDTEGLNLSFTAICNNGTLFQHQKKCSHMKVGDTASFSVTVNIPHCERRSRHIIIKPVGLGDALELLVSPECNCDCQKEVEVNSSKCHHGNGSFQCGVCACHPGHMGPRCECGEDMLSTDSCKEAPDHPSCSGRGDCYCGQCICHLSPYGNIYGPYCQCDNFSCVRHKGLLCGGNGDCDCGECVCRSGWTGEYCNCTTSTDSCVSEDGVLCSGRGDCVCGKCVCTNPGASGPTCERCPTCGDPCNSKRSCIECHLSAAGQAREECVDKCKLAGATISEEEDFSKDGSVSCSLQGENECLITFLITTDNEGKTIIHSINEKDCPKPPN

SMILES	IC50 [nM]
O=C(N[C@@H](CCN1CC[C@@H](OCc2ccc3c(n2)NCCC3)C1)C(=O)O)c1ccccc1 [Compound 112]	> 1000
O=C(N[C@@H](CCN1CCC[C@@](F)(CCc2ccc3c(n2)NCCC3)C1)C(=O)O)c1cccc(F)c1Cl [Compound 62]	50 to 250
O=C(N[C@@H](CCN1CCC[C@@](F)(CCc2ccc3c(n2)NCCC3)C1)C(=O)O)C1CCC(F)(F)CC1 [Compound 107]	50 to 250
O=C(N[C@@H](CCN1CC[C@@H](CCc2ccc3c(n2)NCCC3)C1)C(=O)O)c1cccc(-c2cncs2)c1 [Compound 66]	< 50
Cn1cc(C(=O)N[C@@H](CCN2CC[C@@H](CCc3ccc4c(n3)NCCC4)C2)C(=O)O)cn1 [Compound 69]	50 to 250
O=C(N[C@@H](CCN1CC(CCc2ccc3c(n2)NCCC3)C1)C(=O)O)C1CCCN1Cc1ccccc1 (stereo partly shown) [Compound 135]	> 1000
O=C(N[C@@H](CCN1CC[C@@H](CCc2ccc3c(n2)NCCC3)C1)C(=O)O)c1ccccn1 [Compound 17a, (S)-2-(picolinamido)-4-((R)-3-(2-(5,6,7,8-tetrahydro-1,8-naphthyridin-2-yl)ethyl)pyrrolidin-1-yl)butanoic acid]	50 to 250
O=C(N[C@@H](CCN1CC[C@@](F)(CCc2ccc3c(n2)NCCC3)C1)C(=O)O)c1c(Cl)cccc1Cl [Compound 63]	50 to 250
CC(C)(C(=O)N[C@@H](CCN1CC(OCCc2ccc3c(n2)NCCC3)C1)C(=O)O)c1cccnc1 [Compound 128]	250 to 1000
O=C(N[C@H](CCN1CC[C@@H](CCc2ccc3c(n2)NCCC3)C1)C(=O)O)C1CCC(F)(F)CC1 [Compound 21c, (R)-2-(4,4-difluorocyclohexane-1-carboxamido)-4-((R)-3-(2-(5,6,7,8-tetrahydro-1,8-naphthyridin-2-yl)ethyl)pyrrolidin-1-yl)butanoic acid]	< 50
O=C(NC(CCN1CC[C@@H](CCc2ccc3c(n2)NCCC3)C1)C(=O)O)C1CCN(C2CC2)CC1 (stereo partly shown) [23a and 23c]	50 to 250
O=C(N[C@@H](CCN1C2CCC1C(CCc1ccc3c(n1)NCCC3)C2)C(=O)O)c1cc(F)cc(C(F)(F)F)c1 (stereo partly shown) [Compound 140]	> 1000
Cn1cc(-c2cccc(C(=O)N[C@H](CCN3CC[C@@H](CCc4ccc5c(n4)NCCC5)C3)C(=O)O)c2)cn1 [Compound 87]	< 50
Cn1nc(-c2ccccc2)c2cccc(C(=O)N[C@@H](CCN3CC[C@@H](CCc4ccc5c(n4)NCCC5)C3)C(=O)O)c21 [Compound 82]	< 50
O=C(N[C@@H](CCN1CC[C@H](CCc2ccc3c(n2)NCCC3)C1)C(=O)O)c1c(Cl)cccc1Cl [Compound 146]	< 50
O=C(N[C@@H](CCN1CC[C@@H](CCc2ccc3c(n2)NCCC3)C1)C(=O)O)[C@@H]1CCN(c2ccccn2)C1 [Compound 47]	< 50
CC(C)(C)C(=O)N[C@H](CCN1CC[C@@H](CCc2ccc3c(n2)NCCC3)C1)C(=O)O [Compound 1c, (R)-2-pivalamido-4-((R)-3-(2-(5,6,7,8-tetrahydro-1,8-naphthyridin-2-yl)ethyl)pyrrolidin-1-yl)butanoic acid]	< 50
Cn1nccc1C(=O)N[C@@H](CCN1CC[C@@H](CCc2ccc3c(n2)NCCC3)C1)C(=O)O [Compound 49]	< 50
COCCOc1cccc(C(=O)N[C@@H](CCN2CCC[C@@](F)(CCc3ccc4c(n3)NCCC4)C2)C(=O)O)c1 [Compound 100]	50 to 250
Cc1cccc(C)c1C(=O)NC(CCN1CC[C@@H](CCc2ccc3c(n2)NCCC3)C1)C(=O)O (stereo partly shown) [4a and 4c]	< 50
O=C(O)[C@H](CCN1CC(OCCc2ccc3c(n2)NCCC3)C1)NC(=O)[C@@H]1CCCN1c1ccccc1 [Compound 127]	< 50
O=C(N[C@@H](CCN1CC[C@@H](CCc2ccc3c(n2)NCCC3)C1)C(=O)O)c1cccc(-c2cccs2)c1 [Compound 55]	< 50
O=C(N[C@@H](CCN1CC[C@@H](CCc2ccc3c(n2)NCCC3)C1)C(=O)O)c1cccc(-c2ccccc2)c1 [Compound 56]	< 50
O=C(N[C@@H](CCN1CC[C@@H](CCc2ccc3c(n2)NCCC3)C1)C(=O)O)c1cccc(-c2cscn2)c1 [Compound 65]	50 to 250
O=C(N[C@@H](CCN1CC[C@@H](CCc2ccc3c(n2)NCCC3)C1)C(=O)O)c1ccncn1 [Compound 70]	< 50
O=C(N[C@@H](CCN1CC(OCCc2ccc3c(n2)NCCC3)C1)C(=O)O)[C@@H]1CCN(c2ccccn2)C1 [Compound 131]	50 to 250

SMILES	IC50 [nM]
O=C(N[C@@H](CCN1CCC[C@@](F)(CCc2ccc3c(n2)NCCC3)C1)C(=O)O)c1cccc(N2CCOCC2)c1 [Compound 96]	50 to 250
O=C(NC(CCN1CC[C@@H](CCc2ccc3c(n2)NCCC3)C1)C(=O)O)c1ccccc1 (stereo partly shown) [3a and 3c]	< 50
CC(C)(C(=O)N[C@@H](CCN1CC(CCc2ccc3c(n2)NCCC3)C1)C(=O)O)c1ccccc1 [Compound 136]	> 1000
Cn1ncc2ccc(C(=O)N[C@@H](CCN3CCC[C@@](F)(CCc4ccc5c(n4)NCCC5)C3)C(=O)O)cc21 [Compound 106]	50 to 250
O=C(O)[C@H](CCN1CC[C@@H](OCCc2ccc3c(n2)NCCC3)C1)NC(=O)[C@@H]1CCCN1Cc1ccccc1 [Compound 121]	250 to 1000
CC(C)n1cc2c(C(=O)N[C@@H](CCN3CC[C@@H](CCc4ccc5c(n4)NCCC5)C3)C(=O)O)cccc2n1 [Compound 71]	< 50
O=C(N[C@@H](CCN1CC[C@@H](CCc2ccc3c(n2)NCCC3)C1)C(=O)O)[C@H]1CCN(c2ccccn2)C1 [Compound 46]	< 50
O=C(N[C@@H](CCN1CC[C@@H](CCc2ccc3c(n2)NCCC3)C1)C(=O)O)c1cc(OC(F)(F)F)ccc1Cl [Compound 11a]	< 50
O=C(N[C@@H](CCN1CCC[C@](F)(CCc2ccc3c(n2)NCCC3)C1)C(=O)O)c1cccc(F)c1Cl [Compound 103]	< 50
CCC(CC)C(=O)N[C@@H](CCN1CCC[C@](F)(CCc2ccc3c(n2)NCCC3)C1)C(=O)O [Compound 108]	250 to 1000
N#Cc1cccc(C(=O)N[C@@H](CCN2CC[C@@H](CCc3ccc4c(n3)NCCC4)C2)C(=O)O)c1 [Compound 48]	< 50
O=C(N[C@@H](CCN1CCCC(CCc2ccc3c(n2)NCCC3)C1)C(=O)O)c1ccccc1 (stereo partly shown) [Compound 54]	< 50
CC(C)(Cc1ccccc1)C(=O)N[C@@H](CCN1CC(CCc2ccc3c(n2)NCCC3)C1)C(=O)O [Compound 137]	> 1000
O=C(N[C@@H](CCN1CC[C@@H](CCc2ccc3c(n2)NCCC3)C1)C(=O)O)c1cnccn1 [Compound 50]	< 50
O=C(O)[C@H](CCN1CC[C@@H](CCc2ccc3c(n2)NCCC3)C1)NC(=O)[C@@H]1CCCCN1Cc1ccccc1 [Compound 93]	50 to 250
O=C(N[C@@H](CCN1CC[C@@H](CCc2ccc3c(n2)NCCC3)C1)C(=O)O)c1ccncc1 [Compound 18a, (S)-2-(isonicotinamido)-4-((R)-3-(2-(5,6,7,8-tetrahydro-1,8-naphthyridin-2-yl)ethyl)pyrrolidin-1-yl)butanoic acid]	< 50
O=C(NC1CCN(CC[C@H](NC(=O)C2CCC(F)(F)CC2)C(=O)O)CC1)c1ccc2c(n1)NCCC2 [Compound 33]	> 1000
CC(=O)N1CCN(CC[C@H](NC(=O)c2ccccc2)C(=O)O)C[C@@H]1CCc1ccc2c(n1)NCCC2 [Compound 116]	> 1000
O=C(N[C@@H](CCN1CCC[C@@](F)(CCc2ccc3c(n2)NCCC3)C1)C(=O)O)c1ccccc1 [Compound 52]	50 to 250
O=C(N[C@@H](CCN1CC[C@@H](CCc2ccc3c(n2)NCCC3)C1)C(=O)O)c1cccc2[nH]ncc12 [Compound 35]	< 50
CC(C)(C)c1cccc(C(=O)N[C@@H](CCN2CC[C@@H](CCc3ccc4c(n3)NCCC4)C2)C(=O)O)c1 [Compound 68]	< 50
CC1(C(=O)N[C@@H](CCN2CC[C@@H](CCc3ccc4c(n3)NCCC4)C2)C(=O)O)CCOCC1 [Compound 22a, (S)-2-(4-methyltetrahydro-2H-pyran-4-carboxamido)-4-((R)-3-(2-(5,6,7,8-tetrahydro-1,8-naphthyridin-2-yl)ethyl)pyrrolidin-1-yl)butanoic acid]	50 to 250
O=C(N[C@@H](CCN1CC[C@@H](OCCc2ccc3c(n2)NCCC3)C1)C(=O)O)[C@H]1CCN(c2ccccn2)C1 [Compound 126]	> 1000
O=C(N[C@@H](CCN1CCC[C@](F)(CCc2ccc3c(n2)NCCC3)C1)C(=O)O)C1CCC(F)(F)CC1 [Compound 109]	50 to 250
O=C(N[C@H](CCN1CC[C@@H](CCc2ccc3c(n2)NCCC3)C1)C(=O)O)c1c(Cl)cccc1Cl [Compound 6c, (R)-2-(2,6-dichlorobenzamido)-4-((R)-3-(2-(5,6,7,8-tetrahydro-1,8-naphthyridin-2-yl)ethyl)pyrrolidin-1-yl)butanoic acid]	250 to 1000
O=C(NC(CCN1CC[C@@H](CCc2ccc3c(n2)NCCC3)C1)C(=O)O)c1ccc2ocnc2c1 (stereo partly shown) [31a and 31c]	< 50
